Data taken from US20130184316A1, “METHODS FOR DIAGNOSING AND TREATING CONCUSSIVE DISORDERS” (priority 2010, published 2013).

Tests used:
subject with PCS [1] = test: Balance and mobility assessed by Hi-Mat test; type: in vivo, human
Method: (§1) A single subject, prospective, double blind, placebo controlled trial of 4AP was then conducted in this individual. IRB approvals were obtained from all participating institutions and Subject gave written informed consent for all parts of the study. After a 4-week medication washout period, the Subject was randomly assigned a week's course of placebo, followed by a weeklong medication washout period, followed by another week on 4-AP (10 mg twice daily). Based on the medication half-life, a one week washout period was presumed to be sufficient. Subject and assessors were blinded to treatment allocation.
(§2) Measurements conducted at identical times at baseline and on each of the subsequent 3 weeks of the study included: • Balance and mobility assessed by Hi-Mat test (Arch. Phys. Med. Rehabil. 2006, 87(3), 437-442; hereby incorporated by reference in its entirety). • Subjective symptom assessment using the Rivermead Post-Concussion Questionnaire (Clin. Rehabil. 2005, 19(8), 878-887; hereby incorporated by reference in its entirety). • Neuropsychological assessment, consisting of the digit span and cancellation tests from the Wechsler Adult Intelligence Scale, 4th edition (Coalson, D. L., Engi-Raiford, S. Wechsler Adult Intelligence Scale, 4th Ed., in Technical and Interpretive Manual, 4th Ed., San Antonio: Pearson (2008); hereby incorporated by reference in its entirety), the California Verbal Learning Test II (CVLT) (Delis, D. C., Kramer, J. H., Kaplan, E., Ober, B. A. in CVLT-II Manual, San Antonio: The Psychological Corporation (2000); hereby incorporated by reference in its entirety), the Verbal Fluency Test (Connors Continuous Performance Test Computer II Program Version 5 Users Manual, Toronto: Multi-Health Systems, Inc. (2002); hereby incorporated by reference in its entirety), and the Connors Continuous Performance Test (J. Nervous Ment. Dis. 1985, 173(6), 353-357; hereby incorporated by reference in its entirety). • Videonystagmography (VNG) and rotary chair (RC) vestibular testing […]

[2] = test system: EA2 mutant Purkinje cells; conditions: literature (J. Neurosci. 2010), cited from earlier work
[3] = test system: cerebellar Purkinje cells; conditions: in vitro, literature; cited from earlier work
subject with PCS [4] = test: Subjective symptom assessment, Rivermead Post-Concussion Questionnaire; type: in vivo, human
Method: as §1, §2

subject with PCS [5] = test: Abbreviated Abnormal Involuntary Movement Scale (AIMS), blinded raters of video recordings; type: in vivo, human
Source text: During testing sessions, study personnel noted relapse of paroxysmal grimacing, weakness, sialorrhea, slurred speech, and slowed responses that the Subject had experienced prior to starting 4AP. In an effort to corroborate the presence of abnormal movements, video recordings of identical testing segments were reviewed by raters, physical, occupational, and speech therapists all with experience working with TBI. Raters were blinded to subject history and study variables. Absent any established rating scales for the unusual phenomenon observed, an abbreviated version of the Abnormal Involuntary Movement Scale (AIMS) was used (Prog. Brain Res. 2007, 161, 327-338; hereby incorporated by reference in its entirety).

subject with PCS [6] = test: Cancellation test, Wechsler Adult Intelligence Scale 4th edition; type: in vivo, human
Method: as §1, §2

demyelinated axons = conditions: experimental and clinical settings, literature; cited from earlier work
downbeat nystagmus (DBN) = conditions: literature reports; cited from earlier work
[7] = session 5 1st Open: open-label 4AP 10 mg twice daily, 5 weeks after formal study
[8] = session 6 2nd Open: open-label 4AP 10 mg twice daily, 9 weeks after formal study

Nc1ccncc1 [4-AP, 4-Amino pyridine]
HiMat score (subject with PCS [1]; session 4 Active: blinded, one week on 4-AP 10 mg twice daily, baseline 18, placebo 28, washout 28): 31
HiMat score (subject with PCS [1]; session 5 1st Open: open-label 4AP 10 mg twice daily, 5 weeks after conclusion of the formal study): 32
HiMat score (subject with PCS [1]; session 6 2nd Open: open-label 4AP 10 mg twice daily, 9 weeks after conclusion of the formal study): 50
Purkinje cell excitability, spontaneous activity or firing rate ([2]; models of episodic ataxia): does not increase
Functional consequence of treatment in EA2 mutant Purkinje cells ([2]; via blockage of potassium channels): restoration of the precision of pacemaking
Excitability of cerebellar Purkinje cells [3]: increase the excitability
Rivermead score (subject with PCS [4]; session 4 Active: blinded, one week on 4-AP 10 mg twice daily, baseline 43, placebo 24, washout 44): 41
Rivermead score (subject with PCS [4]; [7]): 21
Rivermead score (subject with PCS [4]; [8]): 7
AIMS, active medication phase compared to placebo and washout conditions (subject with PCS [5]; blinded phase, 4-AP 10 mg twice daily for one week): improvement
AIMS Subscale (subject with PCS [5]; session 4 Active: blinded, one week on 4-AP 10 mg twice daily, placebo 15.0, washout 9.5): 4.5
Cancellation task percentile (subject with PCS [6]; session 4 Active: blinded, one week on 4-AP 10 mg twice daily, baseline 37, placebo 37, washout 37): 37 percentile
Cancellation task percentile (subject with PCS [6]; [7]): 75 percentile
Cancellation task percentile (subject with PCS [6]; [8]): 84 percentile
Conduction in demyelinated axons (demyelinated axons): improve conduction
Downbeat nystagmus (DBN) (downbeat nystagmus (DBN)): relieve downbeat nystagmus
